Experimental data: patent US20120171123A1, “USES AND COMPOSITIONS FOR TREATMENT OF RHEUMATOID ARTHRITIS” (priority 2006, published 2012)

Experiments:
Type in all cases: in vivo, human
patients with active RA = test: Low-field MRI follow-up of finger joint inflammation (OMERACT-based scores, ESR, DAS28), Study A subset
Description: The method included the following. […] Proximal interphalangeal and metacarpophalangeal joints of the dominant hands of these patients were examined by 0.2-Tesla MRI (C-Scan, Esaote, Italy). Clinical examinations and MRI were performed at baseline and during therapy for a mean period of 86 days (range: 42-126 days). The used sequences were coronal T1-weighted spin-echo; coronal short-tau inversion-recovery gradient-echo; and T1-weighted, 3D gradient-echo before and after administration of Gd-DTPA (0.2 mmol/kg body weight). Erythrocyte sedimentation rate (ESR) and Disease Activity Score 28 (DAS28) were measured at all time points. MRI was evaluated according to an Outcome Measures in Arthritis Clinical Trials or OMERACT-based semiquantitative scoring system. Scores were calculated for erosions (0-5 scale, maximum of 40), synovitis (0-3 scale, maximum of 24), and tenosynovitis (0-3 scale, maximum of 12).

[1] = tested on: patients with severe RA who had failed MTX; test: Study 2 / Study 3 OLE (adalimumab monotherapy): SF-36; conditions: within 26 weeks
Description: In addition to the SF-36 instrument, the Health Utilities Index Mark 3 (HUI3) and the Functional Assessment of Chronic Illness Therapy-Fatigue (FACIT-F) questionnaires were administered at baseline, 12 weeks, and the end of the study.
The HUI3 scale is 0-1, with “1” denoting perfect health and “0” denoting death. FACIT-F scores range from 0-52, with higher scores representing less fatigue. The SF-36 includes one multi-item scale that assesses eight different dimensions of health, including physical and psychosocial components. For each dimension a value of 0-100 is given, with higher numbers representing less impairment. Changes in HUI3 of ≧0.03, in FACIT-F of ≧4 and in SF-36 of ≧4.4 (physical subscales) and ≧3.1 (mental subscales) are considered clinically meaningful.
In addition to clinical parameters, the SF-36 instrument, the Health Utilities Index Mark 3 (HUI3), and the Functional Assessment of Chronic Illness Therapy-Fatigue (FACIT-F) questionnaires were administered at baseline, and at weeks 12, 26, 50, 74, 98, 122, 146 and 170, respectively. The HUI3 scale ranges from 0-1, with “1” denoting perfect health and “0” denoting death. FACIT-F scores range from 0-52, with higher scores representing less fatigue. SF-36 scores range from 0-100 with higher scores indicating improvement in HRQoL. […]

[2] = tested on: patients with RA who had failed prior treatment with infliximab; test: Adalimumab after failed infliximab (16-week study): DAS28; conditions: for Change in DAS28, mean change from baseline: 16 wk
Description: (§1) Patients eligible to participate in the study included those with long-standing, moderate to severe RA who had terminated infliximab therapy because of lack or loss of efficacy and/or intolerance/side effects. […] Follow-up visits for safety and efficacy monitoring were scheduled at 2, 8, and 16 weeks. […] Efficacy parameters included TJC28 and SJC28; DAS28; ACR20, ACR50 Response; Moderate EULAR response; and HAQ. Subgroup analysis by reason for discontinuation included: • in case of discontinuation due to lack or loss of efficacy, patients were counted in the corresponding group regardless of additional cause of intolerance. • The subgroup “Discontinuation due to intolerance” was exclusive.

[3] = tested on: patients with RA who had failed prior treatment with infliximab; test: Adalimumab after failed infliximab: ACR20/ACR50 and moderate EULAR response; conditions: 16 wk
Description: as §1

adult patients with RA [4] = test: Study 1: DAS28 change by CRP category
Description: (§2) 407 patients with active RA enrolled in the 2 study arms. Of these patients, 299 (73.5%) patients completed the study until Week 52 and were evaluated.
(§3) Patients were grouped into three cohorts based on baseline CRP concentrations: low (<1 mg/dL); intermediate (1-4 mg/dL); and high (>4 mg/dL). Analyses were further conducted in two categories of patients according to their change in CRP concentrations at Week 12: those with a ≧20% decrease in CRP from baseline; or those with a <20% decrease in CRP from baseline. The following efficacy and radiographic measures were analyzed at Week 52 in the three baseline CRP categories and in the two Week 12 change in CRP categories: DAS28, ACR 20/50/70, Health assessment questionnaire (HAQ), and Total Sharp score (TSS).

adult patients with RA [5] = test: Study 1: HAQ change by CRP category
Description: as §2, §3

[6] = all reasons for infliximab withdrawal (N=37)
[7] = no response to infliximab (N=13)
[8] = loss of response to infliximab (N=19)
[9] = week 52, baseline CRP 1-4 mg/dL

**Q.** Which results are given for “adalimumab: human anti-TNF mAb (HUMIRA, Abbott Laboratories), described in U.S. Pat. No. 6,090,382 as D2E7”?
**A.** mean ESR (patients with active RA; after therapy (33.0 before)): 16.2 mm/hr; mean DAS28 (patients with active RA; after therapy (baseline 6.1)): 3.8; median tenosynovitis MRI score (max 12) (patients with active RA; during therapy (baseline 3)): 1.5; median erosion MRI score (max 40) (patients with active RA; during therapy (baseline 6.5), not significant): 4.5; median synovitis MRI score (max 24) (patients with active RA; during therapy, mean 86 days (baseline 11), n=16): 9; SF-36 scores of all subscales/domains [1]: clinically meaningful improvements; Change in DAS28, mean change from baseline [2, 6]: −1.6; Change in DAS28, mean change from baseline ([2]; infliximab intolerance (N=5)): −1.4; Change in DAS28, mean change from baseline [2, 7]: −1.0; maximum change in DAS28 ([2]; week 16): −4.7; patients with a decrease in DAS28 of ≧1.2 ([2]; week 16, completers (21 of 37)): 57%; ACR20 [3, 6]: 49%; ACR50 [3, 6]: 26%; Moderate EULAR response [3, 6]: 65%; ACR20 ([3]; infliximab intolerance (N=5)): 40%; ACR50 ([3]; infliximab intolerance (N=5)): 20%; Moderate EULAR response ([3]; infliximab intolerance (N=5)): 80%; ACR20 [3, 8]: 61%; ACR50 [3, 8]: 39%; Moderate EULAR response [3, 8]: 74%; ACR20 [3, 7]: 33%; ACR50 [3, 7]: 8%; Moderate EULAR response [3, 7]: 46%

**Q.** How did the DAS28 mean change (adult patients with RA [4]; [9]) turn out when `CN(Cc1cnc2nc(N)nc(N)c2n1)c1ccc(C(=O)N[C@@H](CCC(=O)O)C(=O)O)cc1` [mtx alone, methotrexate] was run?
**A.** −1.2

**Q.** And the DAS28 mean change (adult patients with RA [4]; week 52, baseline CRP <1 mg/dL)?
**A.** −1.3

**Q.** What about the DAS28 mean change (adult patients with RA [4]; week 52, baseline CRP >4 mg/dL) of the same compound?
**A.** −1.7

**Q.** And the “mean change in HAQ” value (adult patients with RA [5]; week 52, <20% decrease in CRP at week 12)?
**A.** −0.29

**Q.** And the HAQ mean change (adult patients with RA [5]; [9])?
**A.** −0.4

**Q.** What about the HAQ mean change (adult patients with RA [5]; week 52, baseline CRP <1 mg/dL) of the same compound?
**A.** −0.4

**Q.** What about the HAQ mean change (adult patients with RA [5]; week 52, baseline CRP >4 mg/dL) of the same compound?
**A.** −0.3

**Q.** What about the “mean change in HAQ” value (adult patients with RA [5]; week 52, ≧20% decrease in CRP at week 12) of the same compound?
**A.** −0.48
